Reference: ChEMBL document CHEMBL2176956, “Application of structure-based drug design and parallel chemistry to identify selective, brain penetrant, in vivo active phosphodiesterase 9A inhibitors” (J Med Chem, 2012)

Assay: Clearance in human liver microsomes
Format: ADME, Microsome
Settings: read-out: CLH

With `O=c1[nH]c(Cc2ccccc2)nc2c1cnn2C1CCCC1` as the molecule, how does the CLint scaled read?
The CLint scaled was 200 mL/min/kg.
